Like-named read-outs stand apart in the source and are kept apart here.
What was measured:
FAO = FAO (SC 150 and Max) entries of the compound data sheets
mtGPAT1 = biological target: T1, mtGPAT1 (Mus musculus, UniProt Q61586); experiment: In vitro mtGPAT inhibition: acylation of 14C-glycerol 3-phosphate with palmitoyl-CoA, scintillation counting; type: biochemical
T1 construct: from tissue; host or cells: mitochondrial preparation
T1 sequence (Q61586 1-827): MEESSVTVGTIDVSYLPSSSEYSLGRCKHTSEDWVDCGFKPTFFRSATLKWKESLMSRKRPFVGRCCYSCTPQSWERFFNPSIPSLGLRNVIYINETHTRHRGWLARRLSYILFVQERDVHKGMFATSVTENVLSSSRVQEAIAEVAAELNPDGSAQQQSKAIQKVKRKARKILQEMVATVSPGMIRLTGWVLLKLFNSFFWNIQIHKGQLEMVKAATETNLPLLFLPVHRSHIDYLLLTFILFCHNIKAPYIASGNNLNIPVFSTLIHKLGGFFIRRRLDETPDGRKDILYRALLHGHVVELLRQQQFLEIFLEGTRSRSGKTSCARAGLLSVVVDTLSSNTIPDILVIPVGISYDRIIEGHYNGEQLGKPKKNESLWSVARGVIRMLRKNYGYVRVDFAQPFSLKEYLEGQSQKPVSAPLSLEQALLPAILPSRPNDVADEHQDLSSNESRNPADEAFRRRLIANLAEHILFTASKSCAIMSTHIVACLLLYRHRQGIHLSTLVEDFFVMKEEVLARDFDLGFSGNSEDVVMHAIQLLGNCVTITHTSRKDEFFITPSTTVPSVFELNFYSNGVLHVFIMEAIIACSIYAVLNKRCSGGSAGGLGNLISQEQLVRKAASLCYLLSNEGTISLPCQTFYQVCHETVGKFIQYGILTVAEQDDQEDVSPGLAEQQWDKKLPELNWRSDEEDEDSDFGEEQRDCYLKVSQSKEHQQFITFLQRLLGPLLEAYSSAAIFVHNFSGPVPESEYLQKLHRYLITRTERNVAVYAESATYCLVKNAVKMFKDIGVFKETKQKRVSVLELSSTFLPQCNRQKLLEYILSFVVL
Experimental: The compounds produced as described above were evaluated for their ability to inhibit the acylation of glycerol-3-phosphate in vitro. The acylation reaction between ^14C-labelled glycerol-3-phosphate and palmitoyl-CoA, initiated by adding mtGPAT, was measured in the presence of varying concentrations of the inhibitor by scintillation counting as described in more detail below.
A mitochondrial preparation of glycerol 3-phosphate acyltransferase was added to the incubation mixture containing ^14C-labeled glycerol 3-phosphate, palmitoyl-CoA, and varying inhibitor concentrations to initiate the reaction. After ten min, the reaction was terminated by adding chloroform, methanol, and 1% perchloric acid. Five minutes later, more chloroform and perchloric acid were added, and the upper aqueous layer was removed. After washing three times with 1% perchloric acid, the organic layer was evaporated under nitrogen, and the amount of ^14C present was counted to determine the extent of reaction inhibition. Data points were recorded in triplicate, and IC50 values were calculated based on the amount of test inhibitor necessary to produce 50% of mtGPAT activity observed in the absence of inhibitor but in the presence of DMSO vehicle control.

[1] = compounds 4a-t and 7a-t, read-out: GPAT IC50
[2] = Table 1, sulfonamides 5a-f and 13a-f, triplicate, read-out: IC50 (μM) ± SD, In Vitro Anti-mtGPAT1 Activity
[3] = Table 2, sulfonamides 15a-i and 17a-f, triplicate, read-out: IC50 (μM) ± SD, In Vitro Anti-mtGPAT1 Activity
[4] = Table 3, sulfonamides 21a-c and 24a-f, triplicate, read-out: IC50 (μM) ± SD, In Vitro Anti-mtGPAT1 Activity

SMILES | FAO SC 150 (FAO) | IC50 (mtGPAT1; [1]) [µM] | also measured
CCCCCCCCS(=O)(=O)Nc1cc(-c2ccc(Cl)cc2)ccc1C(=O)O | FAS (IC50) Not Tested CPT I Stim Not Tested FAO SC 150 Neg SA/MH (MIC) ug/ml | 18.4 | 
CCCCCCCCS(=O)(=O)Nc1cc(-c2cccc(Cl)c2)ccc1C(=O)O | FAS (IC50) Not Tested CPT I Stim Not Tested FAO SC 150 Neg SA/MH (MIC) ug/ml | 16 | 
CCCCCCCCS(=O)(=O)Nc1cc(-c2cccs2)ccc1C(=O)O | FAS (IC50) Not Tested CPT I Stim Not Tested FAO SC 150 Neg SA/MH (MIC) ug/ml | 22.5 | 
CCCCCCCCS(=O)(=O)Nc1cc(-c2cccnc2)ccc1C(=O)O | FAS (IC50) Not Tested CPT I Stim Not Tested FAO SC 150 Neg SA/MH (MIC) ug/ml | 65.8 | 
CCCCCCCCS(=O)(=O)Nc1cc(-c2ccc(-c3ccccc3)cc2)ccc1C(=O)O | FAS (IC50) Not Tested CPT I Stim Not Tested FAO SC 150 Neg SA/MH (MIC) ug/ml | 17.4 | 
CCCCCCCCS(=O)(=O)Nc1cc(-c2ccccc2-c2ccccc2)ccc1C(=O)O | FAS (IC50) Not Tested CPT I Stim Not Tested FAO SC 150 Neg SA/MH (MIC) ug/ml | 18 | 
CCCCCCCCS(=O)(=O)Nc1cc(-c2ccccc2OC)ccc1C(=O)O | FAS (IC50) Not Tested CPT I Stim Not Tested FAO SC 150 Neg SA/MH (MIC) ug/ml | 17.6 | 
CCCCCCCCS(=O)(=O)Nc1cc(-c2ccc(OC)cc2)ccc1C(=O)O | FAS (IC50) Not Tested CPT I Stim Not Tested FAO SC 150 Neg SA/MH (MIC) ug/ml | 16 | 
CCCCCCCCS(=O)(=O)Nc1ccc(-c2ccc(Cl)cc2)cc1C(=O)O | FAS (IC50) Not Tested CPT I Stim Not Tested FAO SC 150 Neg SA/MH (MIC) ug/ml | 13.4 | 
CCCCCCCCS(=O)(=O)Nc1ccc(-c2cccc(Cl)c2)cc1C(=O)O | FAS (IC50) Not Tested CPT I Stim Not Tested FAO SC 150 Neg SA/MH (MIC) ug/ml | 13 | 
CCCCCCCCS(=O)(=O)Nc1ccc(-c2ccccc2Cl)cc1C(=O)O | FAS (IC50) Not Tested CPT I Stim Not Tested FAO SC 150 Neg SA/MH (MIC) ug/ml | 14.4 | 
CCCCCCCCS(=O)(=O)Nc1ccc(-c2cccc(C(C)=O)c2)cc1C(=O)O | FAS (IC50) Not Tested CPT I Stim Not Tested FAO SC 150 Neg SA/MH (MIC) ug/ml | 28 | 
CCCCCCCCS(=O)(=O)Nc1ccc(-c2ccc(C(C)=O)cc2)cc1C(=O)O | FAS (IC50) Not Tested CPT I Stim Not Tested FAO SC 150 Neg SA/MH (MIC) ug/ml | 702 | 
CCCCCCCCS(=O)(=O)Nc1ccc(-c2ccccc2-c2ccccc2)cc1C(=O)O | FAS (IC50) Not Tested CPT I Stim Not Tested FAO SC 150 Neg SA/MH (MIC) ug/ml | 13.5 | 
CCCCCCCCS(=O)(=O)Nc1ccc(-c2ccc(-c3ccccc3)cc2)cc1C(=O)O | FAS (IC50) Not Tested CPT I Stim Not Tested FAO SC 150 Neg SA/MH (MIC) ug/ml | 65.7 | 
CCCCCCCCS(=O)(=O)Nc1ccc(-c2ccccc2OC)cc1C(=O)O | FAS (IC50) Not Tested CPT I Stim Not Tested FAO SC 150 Neg SA/MH (MIC) ug/ml | 23.4 | 
CCCCCCCCS(=O)(=O)Nc1ccc(-c2ccc(OC)cc2)cc1C(=O)O | FAS (IC50) Not Tested CPT I Stim Not Tested FAO SC 150 Neg SA/MH (MIC) ug/ml | 19.1 | 
CCCCCCCCS(=O)(=O)Nc1ccc(-c2cccnc2)cc1C(=O)O | FAS (IC50) Not Tested CPT I Stim Not Tested FAO SC 150 Neg SA/MH (MIC) ug/ml | 76.3 | 
CCCCCCCCS(=O)(=O)Nc1ccc(-c2cccs2)cc1C(=O)O | FAS (IC50) Not Tested CPT I Stim Not Tested FAO SC 150 Neg SA/MH (MIC) ug/ml | 22.2 | 
CCCCCCCCS(=O)(=O)Nc1ccc(-c2cccc(O)c2)cc1C(=O)O |  | 57.7 | 
CCCCCCCCS(=O)(=O)Nc1ccc(-c2ccc(F)cc2)cc1C(=O)O |  | 20.6 | 
CCCCCCCCS(=O)(=O)Nc1ccc(-c2cc(Cl)cc(Cl)c2)cc1C(=O)O |  | 19 | 
CCCCCCCCS(=O)(=O)Nc1cc(-c2ccccc2F)ccc1C(=O)O |  | 55.7 | 
CCCCCCCCS(=O)(=O)Nc1cc(-c2cccc(F)c2)ccc1C(=O)O |  | 28.7 | 
CCCCCCCCS(=O)(=O)Nc1cc(-c2ccc(F)cc2)ccc1C(=O)O |  | 25.3 | 
CCCCCCCCS(=O)(=O)Nc1cc(-c2cc(Cl)cc(Cl)c2)ccc1C(=O)O |  | 19.2 | 

SMILES | FAO SC 150 (FAO) | IC50 (mtGPAT1; [1]) [µM] | also measured
CCCCCCCCS(=O)(=O)Nc1cc(-c2ccc(Cl)cc2Cl)ccc1C(=O)O |  | 18.3 | 
CCCCCCCCS(=O)(=O)Nc1cc(-c2ccccc2O)ccc1C(=O)O |  | 62.6 | 
CCCCCCCCS(=O)(=O)Nc1cc(-c2cccc(O)c2)ccc1C(=O)O |  | 55.5 | 
CCCCCCCCS(=O)(=O)Nc1ccc(-c2ccc(O)cc2)cc1C(=O)O |  | 60.9 | 
CCCCCCCCS(=O)(=O)Nc1cc(-c2ccc(O)cc2)ccc1C(=O)O |  | 66.1 | 
CCCCCS(=O)(=O)Nc1ccccc1CP(=O)(O)O [Compound 13a, 2-(Pentylsulfonamido)benzylphosphonic acid] |  |  | IC50 (mtGPAT1; [2]): 41.4 ± 8.4 µM
CCCCCCCCCS(=O)(=O)Nc1ccccc1CP(=O)(O)O [Compound 13b, 2-(Nonylsulfonamido)benzylphosphonic acid] |  |  | IC50 (mtGPAT1; [2]): 30.6 µM
CCCCCCCCCS(=O)(=O)Nc1ccc(CP(=O)(O)O)cc1 [Compound 13f, 4-(Nonylsulfonamido)benzylphosphonic acid] |  |  | IC50 (mtGPAT1; [2]): 30.7 µM
CCCCCCCCCS(=O)(=O)Nc1ccc(C(=O)O)cc1 [Compound 15a, 4-(Nonylsulfonamido)benzoic acid] |  |  | IC50 (mtGPAT1; [3]): 29.1 ± 4.3 µM
O=C(O)c1ccc(NS(=O)(=O)c2ccccc2)cc1 [Compound 15b, 4-(Phenylsulfonamido)benzoic acid] |  |  | IC50 (mtGPAT1; [3]): 41.9 ± 5.3 µM
O=C(O)c1ccc(NS(=O)(=O)c2ccc(Cl)cc2)cc1 [Compound 15c, 4-(4-Chlorophenylsulfonamido)benzoic acid] |  |  | IC50 (mtGPAT1; [3]): 33.7 ± 1.3 µM
O=C(O)c1cccc(NS(=O)(=O)c2ccccc2)c1 [Compound 15e, 3-(Phenylsulfonamido)benzoic acid] |  |  | IC50 (mtGPAT1; [3]): 38.3 ± 7.6 µM
O=C(O)c1cccc(NS(=O)(=O)c2ccc(Cl)cc2)c1 [Compound 15f, 3-(4-Chlorophenylsulfonamido)benzoic acid] |  |  | IC50 (mtGPAT1; [3]): 23.6 ± 1.2 µM
O=C(O)c1ccccc1NS(=O)(=O)c1ccc(Cl)cc1 [Compound 15i, 2-(4-Chlorophenylsulfonamido)benzoic acid] |  |  | IC50 (mtGPAT1; [3]): 33.5 ± 2.5 µM
O=C(O)c1ccc(NS(=O)(=O)Cc2ccccc2)cc1 [Compound 17a, 4-(Phenylmethylsulfonamido)benzoic acid] |  |  | IC50 (mtGPAT1; [3]): 64.5 ± 11.6 µM
O=C(O)c1ccc(NS(=O)(=O)CCc2ccccc2)cc1 [Compound 17b, 4-(2-Phenylethylsulfonamido)benzoic acid] |  |  | IC50 (mtGPAT1; [3]): 63 ± 12.9 µM
O=C(O)c1cccc(NS(=O)(=O)Cc2ccccc2)c1 [Compound 17c, 3-(Phenylmethylsulfonamido)benzoic acid] |  |  | IC50 (mtGPAT1; [3]): 52.1 ± 9 µM
O=C(O)c1cccc(NS(=O)(=O)CCc2ccccc2)c1 [Compound 17d, 3-(2-Phenylethylsulfonamido)benzoic acid] |  |  | IC50 (mtGPAT1; [3]): 50.3 ± 4.4 µM
O=C(O)c1ccccc1NS(=O)(=O)Cc1ccccc1 [Compound 17e, 2-(Phenylmethylsulfonamido)benzoic acid] |  |  | IC50 (mtGPAT1; [3]): 40.7 ± 1.2 µM
O=C(O)c1ccccc1NS(=O)(=O)CCc1ccccc1 [Compound 17f, 2-(2-Phenylethylsulfonamido)benzoic acid] |  |  | IC50 (mtGPAT1; [3]): 46.4 ± 4.5 µM
CCCCCCCCS(=O)(=O)Nc1ccc(P(=O)(O)O)cc1 [Compound 21a, 4-(Octylsulfonamido)phenylphosphonic acid] |  |  | IC50 (mtGPAT1; [4]): 33.3 ± 3.8 µM
CCCCCCCCS(=O)(=O)Nc1cccc(P(=O)(O)O)c1 [Compound 21b, 3-(Octylsulfonamido)phenylphosphonic acid] |  |  | IC50 (mtGPAT1; [4]): 25.3 ± 5.4 µM
CCCCCCCCS(=O)(=O)Nc1ccccc1P(=O)(O)O [Compound 21c, 2-(Octylsulfonamido)phenylphosphonic acid] |  |  | IC50 (mtGPAT1; [4]): 25.7 ± 2.5 µM
CS(=O)(=O)Nc1ccccc1C(=O)O [Compound 24a, 2-(Methylsulfonamido)benzoic acid] |  |  | IC50 (mtGPAT1; [4]): 28.6 ± 4.6 µM
CCCCCCCCCS(=O)(=O)Nc1ccc(Cl)cc1C(=O)O [Compound 24d, 5-Chloro-2-(nonylsulfonamido)benzoic acid] |  |  | IC50 (mtGPAT1; [4]): 11.5 ± 0.7 µM

— patent US20120083471A1, “Novel Compounds, Pharmaceutical Compositions Containing Same, Methods of Use for Same, and Methods for Preparing Same” (priority 2008, published 2012)
